Publication PMC7406860, “Redox Imbalance and Oxidative DNA Damage During Isoniazid Treatment of HIV-Associated Tuberculosis: A Clinical and Translational Pharmacokinetic Study” (Frontiers in Pharmacology, 2020)
Read-outs that look alike come from different tables or passages of the source.

Legend:
HepG2 cells [1] = assay: CometChip imaging of cellular DNA damage; type: cell-based, human; settings: HepG2, 10 µM, 1 week; as compared to isoniazid
Description: (§1) The human liver carcinoma cell line, HepG2, is highly differentiated and is often used to screen the cytotoxicity potential of new chemical entities early in drug development ([Gerets et al., 2012]). HepG2 cells were cultured in Dulbecco’s modified Eagle’s medium (DMEM) supplemented with 10% fetal bovine serum (FBS), 100 U/ml penicillin, 100 μg/ml streptomycin, and 2mM L-glutamine, unless otherwise stated. Cells were continuously incubated at 37°C in a humidified 5% CO2/95% air environment and plated in a 12-well plate at 4x10^5 cells/well, over a duration of 24 h prior to compound exposure. Compound stocks dissolved in water were freshly made each exposure day. Cellular supernatant was replaced with 2 ml of culture media containing 10 µM of compound and left to incubate until 90% confluency was reached. Cell passages were conducted every 3 days under continual exposure to the designated compound for the indicated time period. Cellular supernatant was collected at each passage, clarified, aliquoted, and stored at -80°C for future analysis. Treated cells and supernatants were then examined for markers of cytotoxicity, mitochondrial toxicity, and oxidative DNA damage as described below.
Cells treated for 1 week with 10 µM of compound were plated onto a CometChip (Trevigen) at 2x10^5 cells/ml in a single cell suspension ([Ge et al., 2014]). Cells were incubated on the chip for 60 min at 37°C. The plate was then gently washed with PBS and coated with 1% low melting agarose. After the agarose was solidified by cooling at 4°C, the plate was washed with pre-chilled non-activated alkaline lysis buffer (2.5 M NaCl, […] Na2EDTA, 10mM Tris, pH 10). The chip was lysed overnight at 4°C by submerging the chip in the alkaline lysis buffer containing 1% Triton-X. The plate was then washed with PBS and placed in an electrophoresis chamber filled with pre-chilled alkaline electrophoresis buffer (2mM Na2 EDTA, 300 mM NaOH). Following a 40 min incubation at 4°C to allow for alkaline unwinding, electrophoresis was carried out at 80 volts for 30 min at 4°C. […]

[2] = Clinical parent-metabolite pharmacokinetic study, plasma exposures after oral isoniazid; type: in vivo, human (TB patients); settings: for AUC(0-t): human
Description: The parent-metabolite clinical pharmacokinetic study was approved by the Institutional Review Board of Rutgers University, Newark (protocol #20170001150). We performed intensive pharmacokinetic sampling for drug and metabolite concentrations in 10 TB patients (4 latent infection patients and 6 active TB patients) treated with isoniazid, in order to identify the relevant metabolite concentrations for subsequent pre-clinical experiments. After an overnight fast, patients were dosed with oral isoniazid (300 mg). A pre-dose blood draw was performed, with additional blood draws at 1, 2, 4, 6, and 8 h after dosing. Following centrifugation, plasma samples were stored at -80C until shipment to Alturas Analytics (Moscow, ID) for analysis. […] Noncompartmental pharmacokinetic analysis was performed to determine area under the concentration-versus-time curve (AUC), extrapolated over a 24-h dosing interval according to the slope defined in the elimination phase.

HepG2 cells [3] = assay: Free thiol availability assay (ThiolTracker Violet), glutathione depletion; type: cell-based, human; settings: HepG2, 10 µM, 28-day exposure period
Description: as §1, with “Cellular supernatant was collected at each passage, clarified, aliquoted, and stored at -80°C for future analysis. Treated cells and supernatants were then examined for markers of cytotoxicity, mitochondrial toxicity, and oxidative DNA damage as described below.” left out
By serving as targets of ROS, thiols provide the cellular defense system against oxidative stress. […] Cellular glutathione depletion was quantified in a free thiol availability assay ([Mandavilli and Janes, 2010]). […] Following a 30 min incubation at 37°C, cells were washed three times with D-PBS +C/M. Fluorescent intensity at 404nmEx/526nmEm was measured on a Synergy H1 Hybrid Multi-Mode Reader (BioTek).

HepG2 cells [4] = assay: Mitochondrial membrane integrity (TMRM); type: cell-based, human; settings: HepG2, 10 µM, 28 days of exposure
Description: as §1, with “Treated cells and supernatants were then examined for markers of cytotoxicity, mitochondrial toxicity, and oxidative DNA damage as described below.” left out
To assess mitochondrial membrane integrity, black 96-well polystyrene clear bottom plates were coated with 50 µg/ml of poly-d-lysine for 1 h at 37°C. […] Following three washes with PBS, fluorescent intensity at 488nmEx/570nmEm was measured on a Synergy H1 Hybrid Multi-Mode Reader (BioTek).

HepG2 cells [5] = assay: Immunofluorescence for γ-H2AX; type: cell-based, human; settings: HepG2, 10 µM, 1-week exposure period; compared among the four compounds
Description: as §1
H2Ax is a core histone protein found in the nucleosome, and the phosphorylation of H2Ax is a marker of DNA damage caused by ROS. […]

HepG2 cells [6] = assay: ATP production (Mitochondrial ToxGlo Assay); type: cell-based, human; settings: HepG2, 10 µM, 28 days of treatment
Description: The human liver carcinoma cell line, HepG2, is highly differentiated and is often used to screen the cytotoxicity potential of new chemical entities early in drug development ([Gerets et al., 2012]). HepG2 cells were cultured in Dulbecco’s modified Eagle’s medium (DMEM) supplemented with 10% fetal bovine serum (FBS), 100 U/ml penicillin, 100 μg/ml streptomycin, and 2mM L-glutamine, unless otherwise stated. Cells were continuously incubated at 37°C in a humidified 5% CO2/95% air environment and plated in a 12-well plate at 4x10^5 cells/well, over a duration of 24 h prior to compound exposure. Compound stocks dissolved in water were freshly made each exposure day. […]
Mitochondrial toxicity analysis was assayed using the Mitochondrial ToxGlo Assay (Promega, Madison, WI) following the manufacturer’s instructions. […] Following a 24-h incubation with compound, cytotoxicity was evaluated by the addition of a fluorogenic peptide substrate, bis-AAF-R110, to the cell supernatant for 30 min at 37°C. […] After the cells were allowed to incubate for 30 min at 37°C, fluorescence intensity was measured at 485nmEx/525nmEm. […] Cell lysis mixture was transferred to a 96-well flat solid white bottom plate and luminescence intensity was measured. Assays of fluorescence and luminescence activity were performed with a Synergy H1 Hybrid Multi-Mode Reader (BioTek, Winooski, VT).

HepG2 cells [7] = assay: 8-OHdG in cellular supernatant (competition ELISA); type: cell-based, human; settings: HepG2, 10 µM, 28 days exposure
Description: as §1
Determination of 8-OHdG content in cellular supernatant was assed using an in-house competition ELISA. […] Absorbance at 405 nm was then measured on a Synergy H1 Hybrid Multi-Mode Reader (BioTek).

HepG2 cells [8] = assay: Cytotoxicity (bis-AAF-R110 substrate, Mitochondrial ToxGlo Assay), long-term exposure; type: cell-based, human; settings: HepG2, 10 µM, up to 28 days exposure
[9] = Linear regression of urine oxidative DNA damage (8-OHdG) on isoniazid pharmacokinetic exposures in HIV/TB patients; type: in vivo, human (HIV/TB patients, Botswana)
Description: We conducted a prospective cohort study of isoniazid pharmacokinetics among HIV/TB patients at 22 public clinics and Princess Marina Hospital in Gaborone, Botswana. The study population has been previously described ([Vinnard et al., 2017]). Eligibility criteria included citizens of Botswana, HIV infected adults (21 years of age or older) naïve to ART therapy, and newly diagnosed with pulmonary TB initiated on standard first-line TB regimens at weight-based dosing bands recommended in accordance with WHO guidelines. The study visit occurred between 5 and 28 days after initiation of first-line TB therapy that included isoniazid, prior to initiation of ART therapy.
After an overnight fast, the anti-TB drugs were directly administered. Blood samples (10 ml) were drawn at 0, 0.3, 0.9, 2.2, 4.5, and 8 h post-dosing, based on optimal sampling theory to estimate isoniazid pharmacokinetic parameters. Plasma isoniazid concentrations were measured with liquid chromatography-tandem mass spectrometry (LC-MS/MS) methods as previously described. The peak plasma concentration (Cmax) was obtained directly from the concentration-versus-time data), model-predicted isoniazid concentrations were used to estimate the area under the concentration-versus-time curve during a 24-h interval (AUC0-24). A spot urine sample (approximately 50 ml) was collected 4 h following anti-TB drug dosing and frozen at -80C until analysis. We measured urinary concentrations of 8-OHdG, a marker of oxidative DNA damage that is stable in cryopreserved urine samples, normalized to urine creatinine. The DNA Damage Competitive ELISA kit (ThermoFisher Scientific) was performed using a 1:4 dilution of urine-to-assay buffer. The manufacturer’s instructions were followed with one modification to the protocol. Antigen binding was performed overnight at 4°C with shaking in lieu of a 2-h incubation at room temperature. Each assay was performed in triplicate. Optical absorption was assessed using a Synergy H1 Hybrid Multimode Reader (BioTek). […]

[10] = 10 isoniazid-treated patients, oral isoniazid 300 mg, noncompartmental, extrapolated over 24-h dosing interval

## CC(=O)NNC(=O)c1ccncc1 [Acetylisoniazid]
HepG2 cells [1]
  DNA damage by CometChip microscopy: greater levels of DNA damage
[2]; in vivo, po, 300 mg
  AUC(0-t): 158 µM·h

## CC(=O)NN [Acetylhydrazine]
HepG2 cells [1]
  DNA damage by CometChip microscopy: greater levels of DNA damage
[2]; [10]
  Observed median (range) of plasma AUC0-24: 66.6 (43.2, 198.0) uM*hr

## NN [Hydrazine]
HepG2 cells [1]
  DNA damage by CometChip microscopy: greater levels of DNA damage
[2]; [10]
  Observed median (range) of plasma AUC0-24: 14.5 (3.0, 27.8) uM*hr
HepG2 cells [3]
  Thiol depletion (free thiol availability): greatest
HepG2 cells [4]
  TMRM depletion (mitochondrial membrane integrity): greatest depletion
HepG2 cells [5]
  γ-H2AX levels (double-stranded DNA breaks): greatest
HepG2 cells [6]
  Cellular ATP production impairment: greatest impairment
HepG2 cells [7]
  8-OhDG levels in cell supernatant: highest increase

## NNC(=O)c1ccncc1 [Isoniazid]
HepG2 cells [8]
  Overall cytotoxicity: no appreciable cytotoxicity
[2]; plasma, 10 isoniazid-treated patients, oral isoniazid 300 mg, noncompartmental, extrapolated over 24-h dosing interval, read-out: Observed median (range) of plasma AUC0-24
  AUC(0-t): 60.5 µM·h
[9]; HIV/TB patients, first-line TB therapy
  Unadjusted regression coefficient (95% CI), isoniazid log AUC0-24 vs urine oxidative DNA damage: 0.474 (-0.272, 1.221)
[9]; HIV/TB patients, first-line TB therapy, urine 8-OHdG normalized to creatinine
  Unadjusted regression coefficient (95% CI), isoniazid Cmax (mg/L) vs urine oxidative DNA damage: 0.153 (-0.060, 0.366)
[9]; adjusted for body weight, creatinine clearance, GSTA2 genotype
  Adjusted regression coefficient (95% CI), isoniazid Cmax (mg/L) vs urine oxidative DNA damage: 0.241 (0.020, 0.462)
